The values that follow are results of earlier work, collected in patent US6004969A (National Science Council, priority 1997, dated 1999).

One series concerns animal paw swelling. The note with it: topical use; words.
For series [1] the following is noted: oral administration; words.

Regarding `CC1(C)[C@@H](O)CC[C@]2(C)[C@H]3C(=O)C=C4[C@@H]5C[C@@](C)(C(=O)O)CC[C@]5(C)CC[C@@]4(C)[C@]3(C)CC[C@@H]12` [glycyrrhetinic acid], in the series on animal paw swelling, the “inhibition of animal paw swelling” value was “can inhibit animal paw swelling”. `CC1(C)[C@@H](O[C@H]2O[C@H](C(=O)O)[C@@H](O)[C@H](O)[C@H]2O[C@@H]2O[C@H](C(=O)O)[C@@H](O)[C@H](O)[C@H]2O)CC[C@]2(C)[C@H]3C(=O)C=C4[C@@H]5C[C@@](C)(C(=O)O)CC[C@]5(C)CC[C@@]4(C)[C@]3(C)CC[C@@H]12` [glycyrrhizic acid]: the “inhibition of animal paw swelling” value in the series with animal paw swelling is on record as “can inhibit animal paw swelling”.

For `CO[C@]12CC[C@@]3(C[C@@H]1[C@](C)(O)C(C)(C)C)[C@H]1Cc4ccc(O)c5c4[C@@]3(CCN1CC1CC1)[C@H]2O5` [Buprenorphine, 21-cyclo-propylmethyl-7-α-[(S)-1-hydroxy-1,2,2-trimethylpropyl]-6,14-endoethano-6,7,8,14-tetrahydroripavine], in series [1], the first pass effect entry was “high first pass effect” and the gastrointestinal absorption result is given as “poor gastrointestinal absorption”.
